Laboratory results from patent US9060520B2, “Domestic animal parasite-repellent device” (priority 2007, dated 2015).

Assay: Release kinetics at 38° C. in oven, by daily weighing (Examples 5-8, 10, 11)
Format: physicochemical

Structure (SMILES)	release as of the fourth day (EVA object with DIAZINON and GIN3, for the remaining 70%)	amount released the first three days (EVA object with DIAZINON and GIN3 granules blended 40/60, FIG. 7)	peak of release of LINALOL relative to the bracelet, in absolute value (EVA/PEBAX matrix 30% LINALOL vs PVC bracelet 15% LINALOL, oven 38° C., FIG. 11)
CCOP(=S)(OCC)Oc1cc(C)nc(C(C)C)n1 [DIAZINON]	1.30 % per day	28%	–
C=CC(C)(O)CCC=C(C)C (stereo not drawn) [LINALOL]	–	–	16 times
